We go through one substance from US11047012B2, “Method for detecting the risk and prognosis of adult-onset Still's disease” (Taichung Veterans General Hospital, priority 2018, dated 2021).

The subject of one experiment is THP-1 cells. The experiment is described as follows: poly (I:C) stimulation of THP-1 cells, miR-134 expression. The experiment is classed as cell-based, human. The following applies: 24 hours after stimulation, FIG. 5B. On the procedure: (§1) The miRNA expressions in a sample were detected using the TaqMan MicroRNA detection kit (Applied Biosystems, Thermo Fisher Scientific, USA) and QRT-PCR was performed in the StepOne Plus real-time PCR system. Small nuclear RNA (hereinafter referred to as RUN6) and synthetic cel-miR-39 (hereinafter referred to as cel-miR-39 cel-miR-39) were respectively used as an internal control gene in cells and plasma. The multiple expression of the target gene was obtained by calculating the average expression of the target gene relative to the internal control gene in the sample by comparative threshold cycle (Ct) method, and evaluated by 2^−ΔΔCt, where ΔΔCt is the (CtmiRNAsgene−CtRnu6/cel-miR-39) of the patient from which the average (CtmiRNAs gene−CtRnu6/cel-miR-39) of the internal control gene is subtracted.
(§2) Peripheral blood mononuclear cells, human monocyte cell line U937 (ATCC CRL1593, hereinafter referred to as U937 cell) and THP-1 cells (ATCC TIB-202) isolated from the subject were respectively cultured in RPMI medium 1640 (Gibco, Thermo Fisher Scientific, USA) supplemented with 10% fetal bovine serum, 1× non-essential amino acids, 100 unit/ml penicillin and 100 unit/ml streptomycin in 5% carbon dioxide at 37° C.
Further, the THP-1 cells were treated with the TLR3 ligand poly (I:C).

The subject of experiment [1] is peripheral blood mononuclear cells derived from the patients with AOSD. Briefly: TLR ligand stimulation of peripheral blood mononuclear cells, intracellular miR-134 by QRT-PCR. The experiment is classed as cell-based, human. On the procedure:
as §1, §2
Peripheral blood mononuclear cells (5×10^5 cells) derived from the subjects were stimulated with different TLR ligands. Finally, the intracellular expression level of miR-134 was measured with the TaqMan MicroRNA test kit.
Following the process as described in Example 8, the intracellular expressions of miR-134 and IL-18BP mRNA in the TLR3 ligand-stimulated peripheral blood mononuclear cells derived from patients with AOSD and healthy subjects were detected. The correlation between the IL-18BP and IL-18 expressions and the miR-134 expression was analyzed.

Turning to “polyriboinosinic:polyribocytidylic acid [poly(I:C)]”, in the experiment with THP-1 cells, the “expression of miR-134 (highest value)” value is 1.92±0.11 folds. Further, the “miR-134 expression level in the cells” value in experiment [1] (PBMC from patients with AOSD, TLR3 ligand poly(I:C) 50 μg/ml, FIG. 5A) is given as 3.81±0.09 folds. Moreover, in experiment [1] (TLR3 ligand-stimulated PBMC from patients with AOSD, FIG. 10A), the “expression level of miR-134” value was “increased”. The “expression level of IL-18BP mRNA” value in experiment [1] (TLR3 ligand-stimulated PBMC from patients with AOSD, FIG. 10B) is reported as “reduced”.
